In PubChem BioAssay (NCI):
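96-well plates; 48 h exposure; 5 concentrations. Endpoints by linear interpolation between flanking doses. Not reached: highest tested concentration assigned. TGI: total growth inhibition.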

Assays:
Experiment in all cases: NCI anticancer screen, dose series, 48 h
[1] = tested on: OVCAR-5 ovarian
[2] = tested on: PC-3 prostate
[3] = tested on: LOX IMVI melanoma
[4] = tested on: MDA-MB-435
[5] = tested on: UACC-257 melanoma
[6] = tested on: HOP-62 NSCLC
[7] = tested on: U251 CNS
[8] = tested on: HL-60(TB) leukemia
[9] = tested on: MDA-MB-231 breast
[10] = tested on: NCI-H522 lung
[11] = tested on: NCI-H23 lung
[12] = tested on: NCI-H226 lung
[13] = tested on: SK-MEL-5 melanoma
[14] = tested on: SK-MEL-2 melanoma
[15] = tested on: 786-0 renal
[16] = tested on: IGROV1 ovarian
[17] = tested on: MCF7 breast
[18] = tested on: SW-620 colon
[19] = tested on: M14 melanoma
[20] = tested on: TK-10 renal
[21] = tested on: SF-295 CNS
[22] = tested on: HOP-92 NSCLC
[23] = tested on: OVCAR-3 ovarian
[24] = tested on: T-47D breast
[25] = tested on: OVCAR-8 ovarian
[26] = tested on: NCI-H460 lung
[27] = tested on: HCC-2998 colon
[28] = tested on: MALME-3M melanoma
[29] = tested on: RPMI-8226 leukemia
[30] = tested on: MOLT-4 leukemia
[31] = tested on: UO-31 renal
[32] = tested on: NCI/ADR-RES ovarian
[33] = tested on: SNB-19 CNS
[34] = tested on: COLO 205 colon
[35] = tested on: K-562 leukemia
[36] = tested on: KM12 colon
[37] = tested on: HT29 colon
[38] = tested on: A549 NSCLC
[39] = tested on: SK-OV-3 ovarian
[40] = tested on: CAKI-1 renal
[41] = tested on: RXF 393 renal
[42] = tested on: UACC-62 melanoma
[43] = tested on: SF-268 CNS
[44] = tested on: SN12C renal
[45] = tested on: OVCAR-4 ovarian
[46] = tested on: SF-539 CNS
[47] = tested on: SK-MEL-28 melanoma
[48] = tested on: MDA-N
[49] = tested on: HS 578T breast
[50] = tested on: EKVX NSCLC
[51] = tested on: HCT-116 colon
[52] = tested on: HCT-15 colon
[53] = tested on: SR leukemia
[54] = tested on: A498 renal
[55] = tested on: ACHN renal
[56] = tested on: SNB-75 CNS
[57] = tested on: DU-145 prostate
[58] = tested on: CCRF-CEM leukemia

COC1(C)OC[C@@]2(C)OC(C)C1(C)C2O[Si](C(C)C)(C(C)C)C(C)C (stereo partly drawn)
TGI [1]: 71.8 µM
TGI [2]: > 100 µM
TGI [3]: 42.6 µM
TGI [4]: > 100 µM
TGI [5]: 47.6 µM
TGI [6]: > 100 µM
TGI [7]: > 100 µM
TGI [8]: 40.4 µM
TGI [9]: > 100 µM
TGI [10]: 59.1 µM
TGI [11]: 62.5 µM
TGI [12]: 45.8 µM
TGI [13]: 52.5 µM
TGI [14]: 45.2 µM
TGI [15]: > 100 µM
TGI [16]: 78.5 µM
TGI [17]: 32.9 µM
TGI [18]: > 100 µM
TGI [19]: > 100 µM
TGI [20]: 80.2 µM
TGI [21]: 47.3 µM
TGI [22]: 63 µM
TGI [23]: 50 µM
TGI [24]: 71.3 µM
TGI [25]: > 100 µM
TGI [26]: 62.9 µM
TGI [27]: 40.8 µM
TGI [28]: 51 µM
TGI [29]: 89.3 µM
TGI [30]: 50.9 µM
TGI [31]: 96.7 µM
TGI [32]: 60.3 µM
TGI [33]: > 100 µM
TGI [34]: 32.3 µM
TGI [35]: 82.3 µM
TGI [36]: > 100 µM
TGI [37]: > 100 µM
TGI [38]: > 100 µM
TGI [39]: > 100 µM
TGI [40]: 88 µM
TGI [41]: 57 µM
TGI [42]: > 100 µM
TGI [43]: > 100 µM
TGI [44]: 58.4 µM
TGI [45]: > 100 µM
TGI [46]: > 100 µM
TGI [47]: > 100 µM
TGI [48]: > 100 µM
TGI [49]: 86.8 µM
TGI [50]: 70.9 µM
TGI [51]: > 100 µM
TGI [52]: 48 µM
TGI [53]: 85.7 µM
TGI [54]: > 100 µM
TGI [55]: 62.2 µM
TGI [56]: 69.4 µM
TGI [57]: > 100 µM
TGI [58]: 54.6 µM
